Data as given in article PMC8436411 (ACS Medicinal Chemistry Letters, 2021).
In brackets after ≈: the same amount, converted by molar mass. Several values for one entry are separate records, joined by “and”; a condition that tells them apart may be missing. Equal values may be shown once. Read-outs that look alike come from different tables or passages of the source.

What was measured:
MRSA (QA-11.7) = assay: microbe, parasite or virus in culture; conditions: Staphylococcus aureus, read-out: MIC MRSA (QA-11.7)
Method: (§1) The in vitro antibacterial activity, expressed as minimum inhibitory concentration (MIC), was determined against broad spectrum of bacteria, including Gram-positive (Staphylococcus aureus, methicillin-resistant Staphylococcus aureus, Streptococcus agalactiae, and Enterococcus faecalis) and Gram-negative strains (Escherichia coli, Salmonella alachua, Pseudomonas aeruginosa, and Klebsiella pneumoniae), enriched with various MRSA strains resistant to various antibiotics as well as E. coli strains with increased membrane permeability and lack of efflux pump, as well. […]
(§2) The minimum inhibitory concentrations (MICs) were determined using the broth micro-dilution method in 96-well plate format according to the Clinical and Laboratory Standards Institute […]
(§3) guidelines8 and European Committee on Antimicrobial Susceptibility Testing recommendations9. The bacterial suspension of the specific bacterial strain equivalent to the 0.5 McFarland turbidity standard was diluted with cation-adapted Mueller Hinton broth with TES (Thermo Fisher Scientific) to obtain a […]
(§4) The compounds dissolved in DMSO and inoculum were mixed together and incubated for 20 h at 35 °C.

[1] = test system: Pseudomonas aeruginosa RDK 184 (DSM 939); assay: microbe, parasite or virus in culture
Method: as §1, §2, §3, §4

MRSA (QA-12.1) = assay: microbe, parasite or virus in culture; conditions: Staphylococcus aureus, read-out: MIC MRSA (QA-12.1)
Method: as §1, §2, §3, §4

[2] = test system: Salmonella alachua RDK 030c (QA-1482/04); assay: microbe, parasite or virus in culture
Method: as §1, §2, §3, §4

E. coli (ATCC 25922) = assay: microbe, parasite or virus in culture; conditions: Escherichia coli, ATCC25922, read-out: MIC E. coli (ATCC 25922)
Method: as §1, §2, §3, §4

[3] = test system: E. coli N43 (CGSC no. 5583); assay: microbe, parasite or virus in culture; conditions: Escherichia coli
Method: as §1, §2, §3, §4

[4] = test system: Streptococcus agalactiae RDK 047 (QA-990/02); assay: microbe, parasite or virus in culture
Method: as §1, §2, §3, §4

E. coli D22 = assay: microbe, parasite or virus in culture; conditions: Escherichia coli
Method: as §1, §2, §3, §4

S. aureus (ATCC 29213) = assay: microbe, parasite or virus in culture; conditions: Staphylococcus aureus, ATCC29213, read-out: MIC S. aureus (ATCC 29213)
Method: as §1, §2, §3, §4

Klebsiella pneumoniae = assay: microbe, parasite or virus in culture
Method: as §1, §2, §3, §4

[5] = test system: Enterococcus faecalis DRK 057 (ATCC 29212); assay: microbe, parasite or virus in culture
Method: as §1, §2, §3, §4

Human topoisomerase IIα = Human topoisomerase IIα (Homo sapiens, UniProt P11388); assay: Human topoisomerase IIα residual activity; type: biochemical; conditions: residual activity at 10 μM compound; mean ± SD, two independent experiments; read-out: Human topoisomerase IIα (%RA)
Chain of Human topoisomerase IIα (P11388 whole entry): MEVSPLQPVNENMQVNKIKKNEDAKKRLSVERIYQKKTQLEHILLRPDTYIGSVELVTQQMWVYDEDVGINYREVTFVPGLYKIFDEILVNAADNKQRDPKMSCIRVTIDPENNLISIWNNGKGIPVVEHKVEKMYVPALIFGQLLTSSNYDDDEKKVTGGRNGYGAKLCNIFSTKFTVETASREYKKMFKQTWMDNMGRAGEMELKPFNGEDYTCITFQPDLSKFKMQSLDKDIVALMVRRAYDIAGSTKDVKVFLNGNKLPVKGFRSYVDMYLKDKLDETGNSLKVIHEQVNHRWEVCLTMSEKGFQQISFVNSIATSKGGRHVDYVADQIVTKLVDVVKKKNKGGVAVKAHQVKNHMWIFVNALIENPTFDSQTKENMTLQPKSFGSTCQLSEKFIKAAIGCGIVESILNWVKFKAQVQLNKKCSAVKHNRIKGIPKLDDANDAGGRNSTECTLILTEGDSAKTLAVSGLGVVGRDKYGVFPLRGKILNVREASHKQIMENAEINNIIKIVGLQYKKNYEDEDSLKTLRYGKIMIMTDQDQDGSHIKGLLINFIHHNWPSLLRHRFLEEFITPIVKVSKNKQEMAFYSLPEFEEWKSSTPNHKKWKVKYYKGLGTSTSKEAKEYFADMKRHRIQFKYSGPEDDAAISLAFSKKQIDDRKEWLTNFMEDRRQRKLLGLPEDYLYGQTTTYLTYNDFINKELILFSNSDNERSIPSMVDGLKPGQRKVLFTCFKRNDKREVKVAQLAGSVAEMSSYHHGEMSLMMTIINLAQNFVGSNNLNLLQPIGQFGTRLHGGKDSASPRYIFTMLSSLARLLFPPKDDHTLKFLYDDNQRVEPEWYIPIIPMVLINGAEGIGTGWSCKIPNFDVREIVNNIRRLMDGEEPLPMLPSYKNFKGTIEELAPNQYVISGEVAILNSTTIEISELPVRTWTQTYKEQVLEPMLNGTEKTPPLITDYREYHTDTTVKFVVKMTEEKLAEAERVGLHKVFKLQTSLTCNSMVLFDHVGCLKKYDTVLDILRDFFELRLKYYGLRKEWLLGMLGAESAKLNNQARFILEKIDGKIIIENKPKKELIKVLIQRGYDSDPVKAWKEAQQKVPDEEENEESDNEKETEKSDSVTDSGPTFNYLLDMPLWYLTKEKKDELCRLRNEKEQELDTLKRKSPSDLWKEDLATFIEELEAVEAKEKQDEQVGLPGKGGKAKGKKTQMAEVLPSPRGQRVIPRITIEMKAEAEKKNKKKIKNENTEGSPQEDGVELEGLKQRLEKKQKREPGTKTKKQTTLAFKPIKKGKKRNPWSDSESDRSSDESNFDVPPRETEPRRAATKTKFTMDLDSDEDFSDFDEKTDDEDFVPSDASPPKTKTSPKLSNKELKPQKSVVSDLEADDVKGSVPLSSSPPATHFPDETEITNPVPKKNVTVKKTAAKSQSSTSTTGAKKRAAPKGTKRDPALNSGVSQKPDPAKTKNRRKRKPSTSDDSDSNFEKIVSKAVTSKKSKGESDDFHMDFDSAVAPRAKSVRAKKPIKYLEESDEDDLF

S. aureus DNA gyrase = molecular target: T1, S. aureus DNA gyrase (Staphylococcus aureus, UniProt P20831); assay: DNA gyrase supercoiling inhibition assay (S. aureus); type: biochemical; conditions: mean of two independent measurements ± SD
T1 construct: purchased Inspiralis (Norwich, UK)
T1 sequence (P20831 whole entry, looked up): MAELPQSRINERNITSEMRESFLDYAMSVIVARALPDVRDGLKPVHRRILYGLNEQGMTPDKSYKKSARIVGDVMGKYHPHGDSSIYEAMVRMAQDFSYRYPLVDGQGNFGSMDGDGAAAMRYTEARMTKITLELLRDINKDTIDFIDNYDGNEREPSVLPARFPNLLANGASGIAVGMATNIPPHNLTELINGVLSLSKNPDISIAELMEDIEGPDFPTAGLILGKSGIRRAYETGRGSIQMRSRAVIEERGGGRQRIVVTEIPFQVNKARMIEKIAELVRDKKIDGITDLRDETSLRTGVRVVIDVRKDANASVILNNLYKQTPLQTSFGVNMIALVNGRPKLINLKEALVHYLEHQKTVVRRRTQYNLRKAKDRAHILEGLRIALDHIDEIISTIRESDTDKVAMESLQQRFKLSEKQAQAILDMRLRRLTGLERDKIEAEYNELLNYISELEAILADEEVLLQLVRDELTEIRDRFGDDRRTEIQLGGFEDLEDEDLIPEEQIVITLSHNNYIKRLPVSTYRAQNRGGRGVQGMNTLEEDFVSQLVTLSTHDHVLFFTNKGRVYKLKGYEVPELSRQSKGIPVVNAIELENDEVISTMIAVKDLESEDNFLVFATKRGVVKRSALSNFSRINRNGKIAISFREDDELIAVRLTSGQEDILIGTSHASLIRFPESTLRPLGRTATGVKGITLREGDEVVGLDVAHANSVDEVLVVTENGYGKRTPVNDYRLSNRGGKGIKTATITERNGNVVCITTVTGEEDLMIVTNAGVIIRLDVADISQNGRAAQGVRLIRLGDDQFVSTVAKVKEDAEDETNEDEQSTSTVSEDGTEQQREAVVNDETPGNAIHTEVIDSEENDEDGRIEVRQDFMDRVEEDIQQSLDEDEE
Method: We synthesized and biologically evaluated ten new compounds. We determined their inhibitory activity, expressed as IC50 values, on both Gram-positive S. aureus and Gram-negative E. coli bacterial enzymes (DNA gyrase and topo IV), respectively. The in vitro antibacterial activity, expressed as minimum inhibitory concentration (MIC), was determined against broad spectrum of bacteria, including Gram-positive (Staphylococcus aureus, methicillin-resistant Staphylococcus aureus, Streptococcus agalactiae, and Enterococcus faecalis) and Gram-negative strains (Escherichia coli, Salmonella alachua, Pseudomonas aeruginosa, and Klebsiella pneumoniae), enriched with various MRSA strains resistant to various antibiotics as well as E. coli strains with increased membrane permeability and lack of efflux pump, as well. Furthermore, the selectivity of compounds for bacterial enzyme compared to the orthologous human topoisomerase IIα was also considered. The in vitro safety profile was determined by cytotoxicity assessment on human umbilical vein endothelial cell lines (HUVEC) and HepG2 liver cancer cell lines.
Determination of DNA gyrase and topoisomerase IV inhibitory activities
To determine the IC50 values of the compounds, a Gyrase Supercoiling High Throughput Plate assay kit and a TopoIV Relaxation High Throughput Plate assay kit, commercially available from Inspiralis (Norwich, UK), were used for S. aureus and E. coli. The assays were performed on black streptavidin-coated 96-well microtiter plates (Thermo Scientific Pierce, Norwich, UK) and the wells were first […]
BSA and 0.05% [v/v] Tween-20). Biotinylated oligonucleotide diluted with the wash buffer was then immobilized in each well and the excess was removed with the wash buffer. 1.5 U of the enzyme S. aureus or E. coli DNA gyrase (topoIV) was incubated together with 0.75 μg of relaxed (supercoiled) pNO1 plasmid as substrate in the presence of 3 μl inhibitor solution in 10% DMSO and 0.008% Tween-20 at 37°C for 30 min in a final reaction volume of 30 μl in the assay buffer (S. aureus DNA gyrase: 40 mM HEPES.KOH (pH 7.6), 10 mM magnesium acetate, 10 mM DTT, 2 mM ATP, 500 mM potassium glutamate and 0.05 mg/ml albumin; E. coli DNA gyrase: 35 mM Tris.HCl (pH 7.5), 24 […]
mg/ml albumin; S. aureus topo IV: 50 mM Tris.HCl (7.5), 5 mM MgCl 2, 5 mM DTT, 1.5 mM ATP, 350 mM potassium glutamate and 0.05 mg/ml albumin; E. coli topo IV: 40 mM HEPES.KOH (pH 7.6), 100 mM potassium glutamate, 10 mM magnesium acetate, 10 mM DTT, 1 mM ATP and 50 μg/ml albumin). The reaction was stopped by adding the TF buffer (50 mM NaOAc (pH 4.7), 50 mM NaCl and 50 mM MgCl2) to allow triplex formation (biotin oligonucleotide plasmid) for another 30 min. Finally, the unbound plasmid was washed off using the TF buffer and the Promega Diamond dye was added to T10 buffer (10 mM Tris-HCl (pH 8.0), 1 mM EDTA) solution. After 15 min the solution […]
Two inhibitor concentrations of 100 and 1 μM were used for pre-screening. The IC 50 values […]
(IC50) was calculated by nonlinear regression-based fitting of the inhibition curves using the log [inhibitor] versus response-variable slope (four parameters) – symmetrical equation, in GraphPad Prism 6.0 software (GraphPad Software, CA, USA). The IC50 value represents the average of two independent measurements.
The minimum inhibitory concentrations (MICs) were determined using the broth micro-dilution method in 96-well plate format according to the Clinical and Laboratory Standards Institute

[6] = DSM939, read-out: MIC P. aeruginosa RDK 184 (DSM 939)
[7] = DSM939, read-out: MIC Pseudomonas aeruginosa RDK 184 (DSM 939)
[8] = read-out: MIC S. alachua RDK 030c (QA-1482/04)
[9] = read-out: MIC Salmonella alachua RDK 030c (QA-1482/04)
[10] = read-out: MIC E. coli N43 (CGSC no. 5583)
[11] = read-out: MIC E. coli N43 (CGSC# 5583)
[12] = read-out: MIC S. agalactiae RDK 047 (QA-990/02)
[13] = read-out: MIC Streptococcus agalactiae RDK 047 (QA-990/02)
[14] = read-out: MIC Klebsiella pneumoniae
[15] = ATCC29212, read-out: MIC E. faecalis DRK 057 (ATCC 29212)
[16] = ATCC29212, read-out: MIC Enterococcus faecalis DRK 057 (ATCC 29212)

| Structure (SMILES) | MIC (MRSA (QA-11.7)) | MIC [1, 6] | MIC [1, 7] | MIC (MRSA (QA-12.1)) | MIC [2, 8] | MIC [2, 9] | MIC (E. coli (ATCC 25922)) | MIC [3, 10] | MIC [3, 11] | MIC [4, 12] | MIC [4, 13] | MIC (E. coli D22; D22, read-out: MIC E. coli D2) | MIC (E. coli D22; D22, read-out: MIC E. coli D22) | MIC (S. aureus (ATCC 29213)) | MIC (Klebsiella pneumoniae; read-out: MIC K. pneumoniae) | MIC (Klebsiella pneumoniae; [14]) | MIC [5, 15] | MIC [5, 16] | remaining activity at 10 µM (Human topoisomerase IIα) | IC50 (S. aureus DNA gyrase) |
| --- | --- | --- | --- | --- | --- | --- | --- | --- | --- | --- | --- | --- | --- | --- | --- | --- | --- | --- | --- | --- |
| COc1ccc2nccc(CCN3CCC(NCc4cc(F)c(Br)cc4F)CC3)c2n1 [Compound 9] | 0.033 µM and 0.016 µg/mL | 260 µM | 128 µg/mL | 0.033 µM and 0.016 µg/mL | 32.6 µM | 16 µg/mL | 2.04 µM and 1 µg/mL | 0.062 µg/mL | 0.126 µM | 0.509 µM | 0.25 µg/mL | 0.509 µM | 0.25 µg/mL | 0.016 µM and 0.008 µg/mL | 130 µM | 64 µg/mL | 1.02 µM | 0.5 µg/mL | 98.83 ± 0.11% | 9 ± 1 nM |
| COc1ccc2nccc(CCN3CCC(NCc4cc(F)c(Cl)c(F)c4)CC3)c2n1 [Compound 7] | 0.069 µM and 0.031 µg/mL | 35.8 µM | 16 µg/mL | 0.069 µM and 0.031 µg/mL | 4.47 µM | 2 µg/mL | 1.12 µM and 0.5 µg/mL | 0.062 µg/mL | 0.139 µM | 1.12 µM | 0.5 µg/mL | 0.069 µM | 0.031 µg/mL | 0.018 µM and 0.008 µg/mL | 17.9 µM | 8 µg/mL | 1.12 µM | 0.5 µg/mL | 99.43 ± 0.57% | 14 ± 2 nM |
| COc1ccc2nccc(CCN3CCC(NCc4ccc(Cl)c(F)c4)CC3)c2n1 [Compound 4] | 0.072 µM and 0.031 µg/mL | 149 µM | 64 µg/mL | 0.072 µM and 0.031 µg/mL | 18.7 µM | 8 µg/mL | 4.66 µM and 2 µg/mL | 0.062 µg/mL | 0.145 µM | 2.33 µM | 1 µg/mL | 0.583 µM | 0.25 µg/mL | 0.072 µM and 0.031 µg/mL | 74.6 µM | 32 µg/mL | 4.66 µM | 2 µg/mL | 99.2 ± 0.52% | 6 ± 1 nM |
| COc1ccc2nccc(CCN3CCC(NCc4ccc(Br)c(F)c4)CC3)c2n1 [Compound 5] | 0.034 µM and 0.016 µg/mL | 67.6 µM | 32 µg/mL | 0.065 µM and 0.031 µg/mL | 8.45 µM | 4 µg/mL | 2.11 µM and 1 µg/mL | 0.031 µg/mL | 0.065 µM | 4.22 µM | 2 µg/mL | 0.131 µM | 0.062 µg/mL | 0.017 µM and 0.008 µg/mL | 33.8 µM | 16 µg/mL | 1.06 µM | 0.5 µg/mL | 98.46 ± 0.45% | 7 nM |
| COc1ccc2nccc(CCN3CCC(NCc4ccc(I)c(F)c4F)CC3)c2n1 [Compound 11] | 0.058 µM and 0.031 µg/mL | 119 µM | 64 µg/mL | 0.115 µM and 0.062 µg/mL | 14.9 µM | 8 µg/mL | 3.71 µM and 2 µg/mL | 0.031 µg/mL | 0.058 µM | 0.929 µM | 0.5 µg/mL | 0.23 µM | 0.125 µg/mL | 0.015 µM and 0.008 µg/mL | 59.4 µM | 32 µg/mL | 0.929 µM | 0.5 µg/mL | 94.9 ± 5.67% | 9 ± 1 nM |
| O=c1ccc2ncc(=O)n3c2n1C[C@H]3CN1CCC(NCc2cc3c(cn2)OCCC3)CC1 [Gepotidacin, gepotidacin, reference compound] | 0.138 µM and 0.062 µg/mL | 17.8 µM | 8 µg/mL | 0.279 µM and 0.125 µg/mL | 8.92 µM | 4 µg/mL | 2.23 µM and 1 µg/mL | 0.016 µg/mL | 0.036 µM | – | – | 0.279 µM | – | 0.279 µM (≈ 0.125 µg/mL) | 17.8 µM | 8 µg/mL | – | – | – | – |
